Results: ChEMBL document CHEMBL3352491, “Novel semicarbazides and ureas of primaquine with bulky aryl or hydroxyalkyl substituents: synthesis, cytostatic and antioxidative activity” (Eur J Med Chem, 2014)

What was measured:
[1] = biological target: Lipoxygenase (Glycine max) (UniProt Q39829); assay: Inhibition of soybean LOX using sodium linoleate as substrate at 100 uM by spectrophotometry
[2] = Antioxidant activity assessed as inhibition of lipid peroxidation at 100 uM by spectrophotometry; format: physicochemical
MCF7 = assay: Cytostatic activity against human MCF7 cells assessed as growth inhibition after 3 to 4 days by MTT assay; format: functional, cell-based
CCRF-CEM = assay: Cytostatic activity against human CEM cells assessed as growth inhibition after 3 to 4 days by MTT assay; format: functional, cell-based
[3] = Antioxidant activity assessed as DPPH scavenging activity at 100 uM after 20 mins by spectrophotometry; format: physicochemical
[4] = Cytostatic activity against human MIAPaCa2 cells assessed as growth inhibition after 3 to 4 days by MTT assay; format: functional, cell-based; conditions: MIA PaCa-2
SW-620 = assay: Cytostatic activity against human SW620 cells assessed as growth inhibition after 3 to 4 days by MTT assay; format: functional, cell-based
[5] = Cytostatic activity against human Molt4/C8 cells assessed as growth inhibition after 3 to 4 days by MTT assay; format: functional, cell-based; conditions: MOLT-4
[6] = Cytostatic activity against human H460 cells assessed as growth inhibition after 3 to 4 days by MTT assay; format: functional, cell-based; conditions: NCI-H460
[7] = Antioxidant activity assessed as DPPH scavenging activity at 100 uM after 60 mins by spectrophotometry; format: physicochemical; conditions: 1 h
L1210 = assay: Cytostatic activity against mouse L1210 cells assessed as growth inhibition after 3 to 4 days by MTT assay; format: functional, cell-based
HeLa = assay: Cytostatic activity against human HeLa cells assessed as growth inhibition after 3 to 4 days by MTT assay; format: functional, cell-based
Lipoxygenase = Lipoxygenase (Glycine max, UniProt Q39829); assay: Inhibition of soybean LOX using sodium linoleate as substrate by spectrophotometry

Row | SMILES | inhibition [1] [%] | inhibition (INH) [2] | IC50 (MCF7) [µM] | IC50 (CCRF-CEM) [µM] | Activity [3] | IC50 [4] [µM] | IC50 (SW-620) [µM] | IC50 [5] [µM] | IC50 [6] [µM] | Activity [7] | IC50 (L1210) [µM] | IC50 (HeLa) [µM] | IC50 (Lipoxygenase; read-out: IC50) [µM] | IC50 (Lipoxygenase)
1 | O=C1NCCN1C(c1ccccc1)(c1ccccc1)c1ccccc1 | 6 | 20% | 63 | 27 | Not Active | 31 | ≥ 100 | 21 | > 100 | Not Active | 68 | 102 | – | –
2 | COc1cc(NC(C)CCCNC(=O)NNC(=O)NC(c2ccccc2)c2ccc(Cl)cc2)c2ncccc2c1 (stereo not given) | – | 77% | 2 | 5.5 | 30% | 6 | 3 | 9.6 | 3 | 55% | 8.8 | 6.9 | 70.5 | –
3 | COc1cc(NC(C)CCCNC(=O)NNC(=O)NCCCO)c2ncccc2c1 (stereo not given) | – | 45% | 13 | > 250 | 9% | ≥ 250 | > 100 | > 250 | > 100 | 20% | > 250 | > 250 | – | Not Active
4 | COc1cc(NC(C)CCCNC(=O)NNC(=O)NCCNC(c2ccccc2)(c2ccccc2)c2ccccc2)c2ncccc2c1 (stereo not given) | – | 88% | 2 | 4.2 | 30% | 5 | 7 | 8 | 4 | 41% | 6.2 | 10 | 100 | –
5 | COc1cc(NC(C)CCCNC(=O)NCCNC(c2ccccc2)(c2ccccc2)c2ccccc2)c2ncccc2c1 (stereo not given) | – | 89% | 45 | 10 | Not Active | 40 | 54 | 210 | > 100 | 12% | 40 | 38 | 93 | –
6 | COc1cc(NC(C)CCCNC(=O)NC(c2ccccc2)c2ccc(Cl)cc2)c2ncccc2c1 (stereo not given) | – | 90% | > 100 | 86 | 12% | 181 | > 100 | ≥ 250 | > 100 | 24% | 94 | 186 | 57.9 | –
7 | CN(C(=O)n1nnc2ccccc21)C(c1ccccc1)c1ccccc1 | – | 76% | 23 | 24 | 3% | 26 | ≥ 100 | 28 | 27 | Not Active | 15 | 25 | 87.5 | –
8 | NNC(=O)NC(c1ccccc1)c1ccc(Cl)cc1 (stereo not given) | 9 | 52% | ≥ 100 | 217 | 14% | 178 | > 100 | ≥ 250 | > 100 | 27% | ≥ 250 | 182 | – | –
9 | COc1cc(NC(C)CCCNC(=O)NNC(=O)Nc2ccc(Cl)c(C(F)(F)F)c2)c2ncccc2c1 (stereo not given) | – | 63% | 2 | 14 | 64% | 18 | 15 | 19 | 13 | 90% | 19 | 17 | – | Not Active
10 | COc1cc(NC(C)CCCNC(=O)NNC(=O)NCCCC(C)Nc2cc(OC)cc3cccnc23)c2ncccc2c1 (stereo not given) | 31 | 65% | 0.2 | 87 | 18% | 69 | > 100 | ≥ 250 | 94 | 37% | 92 | 67 | – | –
11 | COc1ccc(/C(=N/NC(=O)NNC(=O)NCCCC(C)Nc2cc(OC)cc3cccnc23)c2ccccc2)cc1 (stereo not given) | – | 78% | 2 | 7.4 | 47% | 13 | 7 | 12 | 7 | 64% | 6.2 | 18 | 60.5 | –
12 | COc1cc(NC(C)CCCNC(=O)NNC(=O)NCCCCCO)c2ncccc2c1 (stereo not given) | 4 | 54% | 4 | 170 | 14% | 168 | > 100 | ≥ 250 | > 100 | 32% | > 250 | ≥ 250 | – | –
13 | COc1cc(NC(C)CCCNC(=O)Nc2ccc(Cl)c(C(F)(F)F)c2)c2ncccc2c1 (stereo not given) | 43 | 61% | 4 | 3.1 | 20% | 4 | 23 | 3.4 | 28 | 21% | 3.6 | 3.9 | – | –
14 | CN(C(=O)NN)C(c1ccccc1)c1ccccc1 | – | 7% | ≥ 100 | 127 | 24% | 127 | > 100 | 144 | > 100 | 47% | ≥ 250 | 174 | – | –
15 | COc1cc(NC(C)CCCNC(=O)NNC(=O)N(C)C(c2ccccc2)c2ccccc2)c2ncccc2c1 (stereo not given) | 44 | 69% | 5 | 10 | 44% | 18 | 27 | 19 | 16 | 73% | 16 | 22 | – | –
16 | COc1cc(NC(C)CCCNC(=O)NNC(=O)NC(CO)(CO)CO)c2ncccc2c1 (stereo not given) | 6 | 49% | 28 | > 250 | 18% | > 250 | > 100 | > 250 | > 100 | 40% | > 250 | > 250 | – | –
17 | O=C(NC(c1ccccc1)c1ccc(Cl)cc1)n1nnc2ccccc21 (stereo not given) | 28 | 63% | 42 | 116 | 24% | 110 | 23 | 176 | 18 | 12% | 67 | 87 | – | –
18 | CCOC(=O)NC(c1ccccc1)c1ccc(Cl)cc1 (stereo not given) | – | 21% | > 100 | > 250 | Not Active | 142 | > 100 | > 250 | > 100 | Not Active | > 250 | > 250 | – | –
19 | COc1cc(NC(C)CCCNC(=O)NN)c2ncccc2c1 (stereo not given) | 42 | 70% | 16 | > 250 | 61% | ≥ 250 | > 100 | ≥ 250 | > 100 | 82% | > 250 | ≥ 250 | – | –
20 | COc1cc(NC(C)CCCNC(=O)NNC(=O)N(CCO)CCO)c2ncccc2c1 (stereo not given) | 30 | 43% | 29 | > 250 | 25% | > 250 | > 100 | > 250 | > 100 | 45% | > 250 | > 250 | – | –
21 | O=C(NC(c1ccccc1)c1ccc(Cl)cc1)NC(c1ccccc1)c1ccc(Cl)cc1 (stereo not given) | 38 | 33% | > 100 | > 250 | Not Active | 97 | > 100 | > 250 | > 100 | Not Active | 250 | > 250 | – | –
22 | Cc1c(C)c2c(c(C)c1O)CCC(C)(C(=O)O)O2 (stereo not given) [TROLOX] | – | 63% | – | – | – | – | – | – | – | – | – | – | – | –
23 | COc1cc(NC(C)CCCNC(=O)N(C)C(c2ccccc2)c2ccccc2)c2ncccc2c1 (stereo not given) | – | 79% | 9 | 5.2 | 20% | 21 | > 100 | 10 | ≥ 100 | 16% | 6.7 | 121 | – | –
24 | CCOC(=O)N(C)C(c1ccccc1)c1ccccc1 | – | Not Active | 26 | 108 | Not Active | 94 | 27 | 105 | ≥ 100 | Not Active | 96 | 80 | – | –
25 | COc1cc(NC(C)CCCNC(=O)NCCCC(C)Nc2cc(OC)cc3cccnc23)c2ncccc2c1 (stereo not given) | 6 | 89% | 6 | 5 | 20% | 186 | > 100 | > 250 | > 100 | 32% | 92 | > 250 | – | –
